According to patent publication US12564568B2, “PKC pathway in Parkinson's Disease” (CEDARS-SINAI MEDICAL CENTER, priority 2018, dated 2026):
Entries after “also recorded” stand apart in the source; their conditions may differ.

Assays:
[1] = Dose ranging study in rat; format: in vivo; settings: rats, for 7 days
Method: For dose ranging studies in rat and mini-pig. Repeated doses up to 15 ug/kg/day for 7 days were tolerated in rats, 5 ug/kg in pigs

SNCA = SNCA gene expression over PEP005 time-course (qPCR); format: cell-based, human; settings: 4 hours after PEP005 treatment
Method: qPCR: Total cellular RNA was isolated using TRIzol Reagent followed by Qiagen RNeasy Mini kit with DNase treatment. Total RNA (1 μg) was used for cDNA synthesis using the Quantitate Reverse Transcription Kit for cDNA synthesis for PCR (Qiagen). Real-time PCR was performed using the SYBR Green Supermix (BIO-RAD). The levels of expression of respective genes were normalized to corresponding GAPDH values and shown as fold change relative to the value of the control sample (ΔΔCt method)

α-synuclein = α-synuclein protein level in day 30 iPSC-derived mDA (DaN) cultures after drug treatment (western blot, immunostaining); format: cell-based, human
Method: iPSC maintenance, mDA neuron differentiation and drug treatments: iPSCs were maintained in E8 media on Matrigel and passaged every 5 days at split ratios from 1:6 to 1:12 as needed using Versene. Only iPSCs between passage 17 and passage 35 were used in this study. For differentiation, iPSCs were grown to ˜80% confluency. Cells were singularized with Accutase (Millipore/Sigma #SCR005) (5 minutes at 37° C.) and plated onto Matrigel-coated 6-well plates (BD Biosciences) at 200K cells per cm^2 (for a fully confluent monolayer) in E8 media with 5 μM Y27632 (StemGent). 24 hours after plating, media was changed to Stage 1 (50% DMEM/F12, 50% Neurobasal, N2, B27-Vitamin A, LDN-193189 (LDN), SB431542 (SB)). Stage 1 media was changed each day (3 mL per well) for 3 days. Media was next switched to Stage 2 (50% DMEM/F12, 50% Neurobasal, N2, B27-Vitamin A, LDN, SB, Purmorphamine (PMN), CHIR99021 (CHIR), Sonic hedgehog (SHH), Fibroblast Growth Factor 8 (FGF8)). Stage 2 media was changed each day (3 mL per well) for 4 days. Media was then switched to Stage 3 (50% DMEM/F12, 50% Neurobasal, N2, B27-Vitamin A, LDN, CHIR, all-trans-Retinoic acid (ATRA)). Stage 3 media was changed each day (3 mL per well) for 4 days. Finally, media was switched to Stage 4 (50% DMEM/F12, 50% Neurobasal, N2, B27+Vitamin A, Brain-Derived Neurotrophic Factor (BDNF), Glial Cell Line-Derived Neurotrophic Factor (GDNF), dibutyryl cyclic-AMP sodium salt (dbCAMP), L-Ascorbic Acid (AA), γ-Secretase inhibitor (DAPT), CHIR, Transforming Growth Factor beta-3 (TGF β3)). Stage 4 media was changed each day (3 mL per well) for 3 days. On day 15, cells were dissociated to single cells using Accutase (20 mins at 37° C.) and gently lifted. Dissociated cells were resuspended in Maturation Medium (50% DMEM/F12, 50% Neurobasal, N2, B27+Vitamin A, BDNF, GDNF, dbCAMP, AA, DAPT, TGF3) plus 5 μM Y27632 and reseeded onto Matrigel-coated 6-well plates at 200 k/cm^2 in 1 mL total volume or onto Matrigel-coated L-glass coverslips in a 24-well plate at 200 k/50 μL drop. Cells were allowed to attach for 45 mins at 37° C. and Maturation Medium was then added to final volumes of 3 mL per well for 6-well plates or 1.5 mL per well for 24-well plates with coverslips. A full medium change was performed 48-hours post-seeding and medium was changed every 3 days until day 30. For drug treatments, cells at day-27 were fed with Maturation Medium containing the indicated drug and cells were analyzed at day 30.
Immunocytochemistry and imaging: mDA neuron cultures were plated on L-glass coverslips and grown as above. Day 30 neurons were fixed in 4% PFA at room temperature for 10-15 mins. Fixed coverslips were washed in PBS and permeabilized for 10 minutes at room temperature in 1% Triton X-100 in PBS, followed by staining in primary antibody solution (5% normal donkey serum, 0.125% Triton-X, PBS) overnight at 4° C. with the following antibodies: TH (1:5000, Immunostar #22941) and α-synuclein (1:500, Abcam #ab138501). Samples were washed 3 times in PBS and stained with species-specific Alexa Fluor 488 or 594-conjugated secondary antibodies (1:500, Invitrogen) for 2 hours at room temperature, followed by DAPI counterstain. Confocal Z-stack images were acquired using a A1 microscope (Nikon) with 40× and 20× objectives and rendered using maximum intensity projection through IMARIS software (Bitplane).
Western blot: Cells were gently scraped off the plates, washed with PBS, centrifuged at 15000 RPM for 1 min, and dry pellets were frozen at −80° C. Samples were then thawed and lysed using 1×NETN buffer (20 mM Tris-HCl (pH 8.0), 100 mM NaCl, 0.5 mM EDTA and 0.5% NP-40) supplemented with phosphatase/protease inhibitor cocktail (MS-SAFE, Sigma-Aldrich). Lysates were sonicated in an automated cold bath sonicator for 20 mins using alternating 10 sec pulses followed by 10 sec rests. Samples were centrifuged for 20 min at 4° C. at 15000 RPM. Total soluble protein concentrations were measured using a Bradford assay (BIO-RAD). […]

synuclein = test: Injection into the ventricles of WT mice, synuclein in striatum; format: in vivo, mouse; settings: 0.3, 3, and 30 uM injected into ventricles of WT mice; 1 and 5 days post injection
Method: (§1) In vivo, PEP stimulates synuclein degradation. Dosage studies of 0.3, 3, and 30 uM PEP was injected into the ventricles of WT mice.

[2] = Repeat dose tox study in mini-pigs; format: in vivo, mini-pig; settings: 5 ug/kg dose IV approximately 1x/week, intake recovered afterwards
Method: In a repeat dose tox study in rats—animals were given up to 10 ug/kg/day for 7 days by IV tail vein injection. […] In a repeat dose tox study in mini-pigs—animals were given up to 5 ug/kg/day IV approximately 1×/week.

[3] = PK profile in mice after IV tail vein injection; format: in vivo, mouse; settings: 10 and 50 ug/kg IV tail vein
Method: In a study to determine PK profile of PEP in mice—10 and 50 ug/kg were administered by IV tail vein injection. […] Again potentially problematic for IV delivery.

[4] = IV bolus dose study, respiratory effects in rat; format: in vivo; settings: doses up to 10 ug/kg
Description: (§2) In multiple IV bolus dose studies, the following was observed.

TH = test: Injection into the ventricles of WT mice, TH in striatum; format: in vivo, mouse; settings: 0.3, 3, and 30 uM injected into ventricles of WT mice; 1 and 5 days post injection
Method: as §1

[5] = IV bolus dose study, cardiovascular effects in mini-pig; format: in vivo; settings: doses up to 5 ug/kg (highest tested)
Description: as §2

C/C=C(/C)C(=O)O[C@H]1C(C)=C[C@]23C(=O)[C@@H](C=C(CO)[C@@H](O)[C@]12O)[C@H]1[C@@H](C[C@H]3C)C1(C)C [PEP005, ingenol-3-angelate]
tolerated repeated dose [1]: up to 15 ug/kg/day | SNCA expression (qPCR) (SNCA): downregulated | α-synuclein levels (western blot) (α-synuclein; EOSPD/PD cultures (190iPD), treated 3 days from day 27, PEP005 1 μM, SMER-28 5 μM, Trehalose): substantially reduced | α-synuclein by immunostaining (α-synuclein; PEP005-treated mDA cultures): decreased | α-synuclein levels (western blot) (α-synuclein; both control and PD cultures / all treated lines, PEP005 1 μM, 3 days): reduced; also recorded: decrease; also recorded: rapid reduction | amount of α-synuclein protein (western blot) (α-synuclein; control line cultures (02iCTR), treated 3 days from day 27, PEP005 1 μM, SMER-28 5 μM, Trehalose): significantly reduced | α-synuclein at low PEP005 doses (α-synuclein; dose response study, low doses): robust reduction | time until α-synuclein is degraded in response to drug treatment (α-synuclein; time-course, control and PD cultures): ≤ 24 h | synuclein in mouse striatum (synuclein): Reduction | food intake [2]: lower food intake the following day | serum concentration ([3]; 1 hour after): below detectable limits | clearance ([3]; >blood flow through the liver): very high clearance | respiratory effects [4]: no biologically relevant responses | TH in mouse striatum (TH): increase | cardiovascular changes [5]: no notable cardiovascular changes | clinical or behavioral effects [5]: no adverse clinical or behavioral effects
